For 7 compounds, IC50 results are on record in patent US20240207427A1, “SELECTIVE DRUG RELEASE FROM INTERNALIZED CONJUGATES OF BIOLOGICALLY ACTIVE COMPOUNDS” (priority 2021, published 2024).

The term IC50 denotes the midpoint of a concentration-inhibition curve.

Read-outs that look alike come from different tables or passages of the source.

Holding throughout (type): cell-based
The test system of experiment [1] is non-small-cell lung cancer cells (Calu1). Briefly: In vitro potency (CellTiter-Glo, 96 h), Calu1. As to conditions: Homo sapiens, Calu-1, 96 h, Table 28; CPT free drugs; non-small-cell lung cancer cells Calu1; 96 h, CellTiter-Glo; read-out: Calu1 IC50. Here is the method: (§1) In vitro potency was assessed on multiple cancer cell lines. All cell lines were authenticated by STR profiling at IDEXX Bioresearch and cultured for no more than 2 months after resuscitation. Cells cultured in log-phase growth were seeded for 24 hours in 96-well plates containing […] RPMI 1640 supplemented with 20% FBS. Serial dilutions of antibody-drug conjugates in cell culture media were prepared at 4× working concentrations, and 50 μL of each dilution was added to the 96-well plates. Following addition of test articles, cells were incubated with test articles for 4 days at 37 0° C. After 96 hours, growth inhibition was assessed by CellTiterGlo® (Promega, Madison, WI) and luminescence was measured on a plate reader.
(§2) In Table 7, IC50 values for ADCs are given in ng/mL. Cell viability was determined by CellTiter-Glo staining after 96 h exposure to ADC. ND=Not Determined. Ag2 is an antibody targeting a ubiquitous and readily internalizable antigen. The cancer cell lines tested are renal carcinoma cells (786-0), melanoma cells (A2058), pancreatic cancer cells (BxPC3), non-small-cell lung cancer cells (Calu1), anaplastic large cell lymphoma cells (DEL, DELBVR, Karpas299), Hodgkin's lymphoma cells (L540cy), (Ls174T), breast cancer cells (MDA-MB-231), acute myeloid leukemia cells (MOLM-13), and B-lymphocyte cancer cells (SU-DHL4).
(§3) In vitro potency was assessed on multiple cancer cell lines. All cell lines were authenticated by STR profiling at IDEXX Bioresearch and cultured for no more than 2 months after resuscitation. Cells cultured in log-phase growth were seeded for 24 hours in 96-well plates containing […] RPMI 1640 supplemented with 20% FBS. Following addition of test articles, cells were incubated with test articles for 4 days at 37 0° C. After 96 hours, growth inhibition was assessed by CellTiterGlo® (Promega, Madison, WI) and luminescence was measured on a plate reader.
(§4) Cell viability was determined by CellTiter-Glo staining after 96 h exposure to the compound. ND=Not Determined. The cancer cell lines tested are renal carcinoma cells (786-0), melanoma cells (A2058), pancreatic cancer cells (BxPC3), non-small-cell lung cancer cells (Calu1), anaplastic large cell lymphoma cells (DEL, DELBVR, Karpas299), Hodgkin's lymphoma cells (L540cy), (Ls 174T), breast cancer cells (MDA-MB-231), acute myeloid leukemia cells (MOLM-13), B-lymphocyte cancer cells (SU-DHL4), multiple myeloma cells (MM.1R), (U266), and melanoma cells (SK-MEL-5).
as §1, with “37°” for “37 0°”
(§5) In the following Tables IC50 values for ADCs and CPT free drugs are given in ng/mL and nmol/L concentrations. Cell viability was determined by CellTiter-Glo staining after 96 h exposure to ADC or CPT free drug.
(§6) Cell viability was determined by CellTiter-Glo staining after 96 h exposure to ADC. ND=Not Determined.

The subject of the next experiment is Ls174T cells. Nature of the experiment: In vitro potency (CellTiter-Glo, 96 h), Ls174T. The conditions noted are these: Homo sapiens, LS174T, 96 h, 96 h. The procedure, abridged:
(§7)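 Growth inhibition after 96 h at 37 °C with test article, measured by luminescence; cells in RPMI 1640, 20% FBS.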
On the technique in general: ATP-based viability assays read luminescence as a measure of living cells.

Experiment [2] relates to anaplastic large cell lymphoma cells (DELBVR). Briefly: In vitro potency (CellTiter-Glo, 96 h), DELBVR. The gist of the method: (§8)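 Cells in log-phase growth seeded 24 h in RPMI 1640 with 20% FBS, then exposed to serially diluted ADC or CPT free drug for 96 h at 37 °C. Growth inhibition read by CellTiter-Glo luminescence; IC50 reported in ng/mL or nmol/L.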
Experiment [3] has as its system Hodgkin's lymphoma cells (L540cy). Nature of the experiment: In vitro potency (CellTiter-Glo, 96 h), L540cy. The procedure, abridged:
as §8

Experiment [4] concerns B-lymphocyte cancer cells (SU-DHL4). Briefly: In vitro potency (CellTiter-Glo, 96 h), SU-DHL-4. As to conditions: Homo sapiens, SU-DHL-4, 96 h. The gist of the method:
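Authenticated lines (STR), used within 2 months of resuscitation, were seeded 24 h before treatment. Exposure to ADC dilutions lasted 96 h at 37 °C in RPMI 1640 with 20% FBS; viability was quantified luminescently.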

Experiment [5] has as its system breast cancer cells (MDA-MB-231). Nature of the experiment: In vitro potency (CellTiter-Glo, 96 h), MDA-MB-231. As to conditions: Homo sapiens, MDA-MB-231, 96 h. The procedure, abridged:
as §8

The subject of experiment [6] is renal carcinoma cells (786-O). Nature of the experiment: In vitro potency (CellTiter-Glo, 96 h), 786-O. As to conditions: Homo sapiens, 786-0, 96 h. The gist of the method: as §8
The test system of a further experiment is melanoma cells (A2058). Briefly: In vitro potency (CellTiter-Glo, 96 h), A2058. As to conditions: Homo sapiens, A2058, 96 h, read-out: A2058 IC50. How it is done:
as §1, §2, §3, §4
as §1, with “37°” for “37 0°”
as §5, §6

Experiment [7] has as its system acute myeloid leukemia cells (MOLM-13). Nature of the experiment: In vitro potency (CellTiter-Glo, 96 h), MOLM-13. The conditions noted are these: Homo sapiens, MOLM-13, 96 h. The procedure, abridged: (§9)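 Log-phase cells were seeded for 24 h in RPMI 1640 with 20% FBS, then exposed to serially diluted antibody-drug conjugates or free camptothecin drug for 4 days at 37 °C. Growth inhibition was read by luminescence, and IC50 values were reported in ng/mL and nmol/L.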

Experiment [8] relates to anaplastic large cell lymphoma cells (DEL). Nature of the experiment: In vitro potency (CellTiter-Glo, 96 h), DEL. The procedure, abridged:
as §7

The subject of experiment [9] is anaplastic large cell lymphoma cells (Karpas299). Nature of the experiment: In vitro potency (CellTiter-Glo, 96 h), Karpas299. The conditions noted are these: Homo sapiens, KARPAS-299, 96 h. The procedure, abridged:
as §8

The subject of experiment [10] is pancreatic cancer cells (BxPC3). Briefly: In vitro potency (CellTiter-Glo, 96 h), BxPC3. As to conditions: Homo sapiens, BXPC-3, 96 h. The gist of the method: as §9
The mark [11] stands for this setting: read-out: Ls174T IC50, camptothecin free drug, 96 h.
The mark [12] stands for this setting: read-out: DELBVR IC50, camptothecin free drug, 96 h.
Where [13] appears, read: read-out: L540cy IC50, camptothecin free drug, 96 h.
Where [14] appears, read: read-out: SU-DHL-4 IC50, camptothecin free drug, 96 h.
[15] abbreviates: read-out: MDAMB231 IC50, camptothecin free drug, 96 h.
Setting [16] is: read-out: 786-O IC50, camptothecin free drug, 96 h.
The mark [17] stands for this setting: read-out: MOLM-13 IC50, camptothecin free drug, 96 h.
[18] abbreviates: read-out: DEL IC50, camptothecin free drug, 96 h.
The mark [19] stands for this setting: read-out: Karpas299 IC50, camptothecin free drug, 96 h.
Setting [20] is: read-out: BxPC3 IC50, camptothecin free drug, 96 h.

Turning to `CC[C@@]1(O)C(=O)OCc2c1cc1n(c2=O)Cc2c-1nc1cc(F)c(SC)cc1c2CN` [Compound 2at], the IC50 in experiment [1] worked out at 37 nM.

In the case of `CC[C@@]1(O)C(=O)OCc2c1cc1n(c2=O)Cc2c-1nc1cc3c(cc1c2CNCC(O)CN1CCOCC1)OCO3` (some centres unmarked) [Compound 7i], the IC50 with Ls174T cells (read-out: Ls174T IC50, Table 29, CPT free drugs, Ls174T cells, CellTiter-Glo) came to 110 nM; in the experiment on Ls174T cells (setting [11]), 72 nM; in experiment [2] (read-out: DELBVR IC50, Table 29, CPT free drugs, anaplastic large cell lymphoma cells DELBVR, CellTiter-Glo), 17 nM; in [2] (setting [12]), 51 nM; in experiment [3] (read-out: L540cy IC50, Table 29, CPT free drugs, Hodgkin's lymphoma cells L540cy, CellTiter-Glo) it was 48 nM; in experiment [3] (setting [13]), 63 nM. Further, the IC50 was determined as 32 nM in experiment [4] (read-out: SU-DHL-4 IC50, Table 29, CPT free drugs, B-lymphocyte cancer cells SU-DHL4, 96 h, CellTiter-Glo); 72 nM in experiment [4] (setting [14]); 183 nM in [5] (read-out: MDAMB231 IC50, Table 29, CPT free drugs, breast cancer cells MDA-MB-231, 96 h, CellTiter-Glo); 1000 nM in experiment [5] (setting [15]); 118 nM in experiment [6] (read-out: 786-O IC50, Table 29, CPT free drugs, renal carcinoma cells 786-O, 96 h, CellTiter-Glo); 128 nM in [6] (setting [16]). Moreover, the IC50 in the experiment on melanoma cells (A2058) is 33 nM; in [7] (read-out: MOLM-13 IC50, Table 29, CPT free drugs, acute myeloid leukemia cells MOLM-13, 96 h, CellTiter-Glo), 183 nM; in experiment [7] (setting [17]), 312 nM; in experiment [8] (read-out: DEL IC50, Table 29, CPT free drugs, anaplastic large cell lymphoma cells DEL, CellTiter-Glo), 9 nM; in experiment [8] (setting [18]) it was 38 nM; in experiment [9] (read-out: Karpas299 IC50, Table 29, CPT free drugs, anaplastic large cell lymphoma cells Karpas299, 96 h, CellTiter-Glo) it was 84 nM. In addition, the IC50 in experiment [9] (setting [19]) turned out to be 154 nM; in [10] (read-out: BxPC3 IC50, Table 29, CPT free drugs, pancreatic cancer cells BxPC3, 96 h, CellTiter-Glo) it was 57 nM; in experiment [10] (setting [20]) it was 106 nM.

For `CC[C@@]1(O)C(=O)OCc2c1cc1n(c2=O)Cc2c-1nc1cc3c(cc1c2CNC1CCOCC1)OCO3` [Compound 7k], the IC50 with Ls174T cells (setting [11]) was determined as 67 nM; in [2] (setting [12]), 14 nM; in experiment [3] (setting [13]), 20 nM; in experiment [4] (setting [14]), 19 nM; in experiment [5] (setting [15]) it was 207 nM; in experiment [6] (setting [16]), 57 nM. The IC50 came to 14 nM in the experiment on melanoma cells (A2058); 34 nM in experiment [7] (setting [17]); 6 nM in experiment [8] (setting [18]); 46 nM in [9] (setting [19]); 63 nM in experiment [10] (setting [20]).

In the case of `CC[C@@]1(O)C(=O)OCc2c1cc1n(c2=O)Cc2c-1nc1cc3c(cc1c2CNCCCN1CCN(C(=O)OC(C)(C)C)CC1)OCO3` [Compound 7m], the IC50 with Ls174T cells (camptothecin free drug, read-out: Ls174T IC50) stood at 222 nM; in [2] (camptothecin free drug, read-out: DELBVR IC50), 54 nM; in experiment [3] (camptothecin free drug, read-out: L540cy IC50) it was 80 nM; in [4] (camptothecin free drug, 96 h, read-out: SU-DHL-4 IC50), 74 nM; in experiment [5] (camptothecin free drug, 96 h, read-out: MDAMB231 IC50) it was 700 nM; in experiment [6] (camptothecin free drug, 96 h, read-out: 786-O IC50), 139 nM. Moreover, the IC50 worked out at 58 nM in the experiment with melanoma cells (A2058) (camptothecin free drug, 96 h); 459 nM in experiment [7] (camptothecin free drug, 96 h, read-out: MOLM-13 IC50); 55 nM in experiment [8] (camptothecin free drug, read-out: DEL IC50); 171 nM in experiment [9] (camptothecin free drug, 96 h, read-out: Karpas299 IC50); 173 nM in experiment [10] (camptothecin free drug, 96 h, read-out: BxPC3 IC50).

With `CC[C@@]1(O)C(=O)OCc2c1cc1n(c2=O)Cc2c-1nc1cc3c(cc1c2CNCCCN(C)C)OCO3` [Compound 7t], the IC50 is over 1000 nM in the experiment with Ls174T cells (setting [11]); 55 nM in experiment [2] (setting [12]); 70 nM in [3] (setting [13]); 97 nM in experiment [4] (setting [14]); 1000 nM in experiment [5] (setting [15]); 153 nM in [6] (setting [16]). In addition, the IC50 was 64 nM in the experiment on melanoma cells (A2058); 326 nM in experiment [7] (setting [17]); 58 nM in experiment [8] (setting [18]); 166 nM in experiment [9] (setting [19]); 171 nM in experiment [10] (setting [20]).

With `CC[C@@]1(O)C(=O)OCc2c1cc1n(c2=O)Cc2c-1nc1cc3c(cc1c2CNC[C@@H](O)CO)OCO3` [Compound 7u], the IC50 came out at 86 nM in the experiment on Ls174T cells (setting [11]); 50 nM in experiment [2] (setting [12]); 60 nM in [3] (setting [13]); 66 nM in experiment [4] (setting [14]); 707 nM in experiment [5] (setting [15]); 122 nM in experiment [6] (setting [16]). The IC50 was 19 nM in the experiment on melanoma cells (A2058); 456 nM in experiment [7] (setting [17]); 26 nM in experiment [8] (setting [18]); 128 nM in experiment [9] (setting [19]); 108 nM in experiment [10] (setting [20]).

As for `CC[C@@]1(O)C(=O)OCc2c1cc1n(c2=O)Cc2c-1nc1cc3c(cc1c2CNCCCN)OCO3` [Compound 7v], the IC50 was 146 nM with Ls174T cells (setting [11]); 57 nM in [2] (setting [12]); 87 nM in [3] (setting [13]); 99 nM in experiment [4] (setting [14]); 1000 nM in experiment [5] (setting [15]); 174 nM in experiment [6] (setting [16]). Further, the IC50 is 69 nM with melanoma cells (A2058); over 1000 nM in experiment [7] (setting [17]); 58 nM in [8] (setting [18]); 132 nM in [9] (setting [19]); 225 nM in experiment [10] (setting [20]).
